Test results published in patent US6703349B2, “Enhanced herbicide composition” (Valent BioSciences Corporation, priority 2001, dated 2004).

Tests used:
[1] = test system: Pigweed; assay: Greenhouse spray test, phytotoxicity rating on pigweed; format: in vivo, Amaranthus retroflexus (red root pigweed); as to 24 hour phytotoxicity Rating (1 = least damage, 5 = most): COC 0.25% (v/v); as to 9 day phytotoxicity Rating (1 = least damage, 5 = most): COC 0.25% (v/v)
Method: (§1) Ultra pure water was used in preparing solutions. For active ingredients (e.g. lactofen or flumioxazin), the active ingredient was dissolved in a small amount of solvent (dimethyl sulfoxide (DMSO) or 1-methyl-2-pyrrolidone), and then water was added. Spray solutions were used as soon as possible after mixing.
(§2) COC in water was used as the control.
(§3) After spraying, plants were allowed to dry at room temperature (about 25° C.). They were then moved to the greenhouse, and plants were arranged in a randomized complete block experimental design. Plants were evaluated for phytotoxicity/herbicidal effects at 24 hours and 7 to 9 days after spraying, assessing damage according to the following scale:
(§4) 5=100% leaf area affected
(§5) All the data were subject to an analysis of variance, and the mean separations were determined with Duncan's multiple range test at p=0.05.

[2] = test system: Tobacco; assay: Greenhouse spray test, phytotoxicity/herbicidal effect and re-growth rating on tobacco; format: in vivo, Nicotiana tabacum (tobacco); as to 8 day phytotoxicity Rating (1 = least damage, 5 = most): COC 0.25% (v/v); as to 9 day phytotoxicity Rating (1 = least damage, 5 = most): COC 0.25% (v/v)
Method: as §1, §2, §3, §4
(§6) Plants were rated for re-growth at 7 to 9 days after treatment according to the following scale:
(§7) 2=75% of control regrowth
(§8) 3=50% of control regrowth
as §5

[3] = test system: Soybean; assay: Greenhouse spray test, phytotoxicity/herbicidal effect and re-growth rating on soybean; format: in vivo, Glycine max (soybean); as to 24 hour phytotoxicity Rating (1 = least damage, 5 = most): COC 0.25% (v/v); as to 8 day phytotoxicity Rating (1 = least damage, 5 = most): COC 0.25% (v/v)
Method: as §1, §2, §3, §4, §6, §7, §8, §5

[4] = test system: Morning glory; assay: Greenhouse spray test, phytotoxicity rating on morning glory; format: in vivo; as to 24 hour phytotoxicity Rating (1 = least damage, 5 = most): COC 0.25% (v/v)
Method: as §1, §2, §3, §4, §5

[5] = test system: Lambsquarter; assay: Greenhouse spray test, phytotoxicity/herbicidal effect and re-growth rating on lambsquarter; format: in vivo, Chenopodium album (lambsquarter)
Method: as §1, §2, §3, §4, §6, §7, §8, §5

[6] = test system: Giant Foxtail; assay: Greenhouse spray test, phytotoxicity/herbicidal effect and re-growth rating on giant foxtail; format: in vivo, Setaria faberi (giant foxtail)
Method: as §1, §2, §3, §4, §6, §7, §8, §5

[7] = test system: Cocklebur; assay: Greenhouse spray test, phytotoxicity/herbicidal effect and re-growth rating on cocklebur; format: in vivo, Xanthrum strumarium (cocklebur)
Method: as §1, §2, §3, §4, §6, §7, §8, §5

[8] = test system: Waterhemp; assay: Greenhouse spray test, phytotoxicity/herbicidal effect and re-growth rating on waterhemp; format: in vivo, Amaranthus rudis (water hemp)
[9] = test system: Burley tobacco; assay: Field test, phytotoxicity (percent leaf area affected) on Burley tobacco; format: in vivo; settings: Burley tobacco in the field; apparent 1 day after application, persisted until day 7; summary of Table 6
[10] = Table 4, 24 hour, NaSA 1.6 g/L, Cobra 0.124 mL/L, Flumioxazin […], COC […] (v/v)
[11] = Table 4, 9 day, NaSA 1.6 g/L, Cobra 0.124 mL/L, Flumioxazin […], COC […] (v/v)
[12] = Table 2, 24 hour, NaSA 1.6 g/L, Cobra 0.124 mL/L, Lactofen 0.030 g/L, COC […] (v/v)
[13] = Table 2, 8 day, NaSA 1.6 g/L, Cobra 0.124 mL/L, Lactofen 0.030 g/L, COC […] (v/v)
[14] = Table 1, 8 day, NaSA 1.6 g/L, Cobra 0.124 mL/L, COC […] (v/v)
[15] = added to Cobra, summary of Table 1
[16] = Table 2, 8 day, NaSA 8.0 g/L, COC […] (v/v)

Q: Which results are given for `C#CCN1C(=O)COc2cc(F)c(N3C(=O)C4=C(CCCC4)C3=O)cc21` [Flumioxazin, flumioxazin]?
A: 24 hour phytotoxicity Rating (1 = least damage, 5 = most) [1, 10]: 4.2; 9 day phytotoxicity Rating (1 = least damage, 5 = most) [1, 11]: 5.0; 24 hour phytotoxicity Rating (1 = least damage, 5 = most) [2, 10]: 3.7; 9 day phytotoxicity Rating (1 = least damage, 5 = most) [2, 11]: 5.0

Q: Which “24 hour phytotoxicity Rating (1 = least damage, 5 = most)” value (from here on “24 hour phytotoxicity Rating”) [3, 12] does the source give for `CCOC(=O)C(C)OC(=O)c1cc(Oc2ccc(C(F)(F)F)cc2Cl)ccc1[N+](=O)[O-]` (centres unmarked) [Lactofen, lactofen] here?
A: 2.4

Q: And the “8 day new growth rating (1 = healthy new growth, 5 = no new growth)” value [3, 13]?
A: 2.6

Q: And the “8 day phytotoxicity Rating (1 = least damage, 5 = most)” value [3, 13]?
A: 2.7

Q: And the “24 hour phytotoxicity Rating” value [2, 12]?
A: 3.1

Q: And the “8 day new growth rating (1 = healthy new growth, 5 = no new growth)” value [2, 13]?
A: 5.0

Q: And the “8 day phytotoxicity Rating (1 = least damage, 5 = most)” value [2, 13]?
A: 4.2

Q: What about the “24 hour phytotoxicity Rating” value ([4]; Table 3, 24 hour, NaSA 1.6 g/L, Cobra 0.124 mL/L, Lactofen 0.030 g/L, COC […] (v/v)) of the same compound?
A: 3.3

Q: What does the source list for `O=C([O-])c1ccccc1O.[Na+]` [NaSA, sodium salicylate]?
A: 8 day new growth rating (1 = healthy new growth, 5 = no new growth) [5, 14]: 1.0; Synergism of Cobra activity by addition of salicylate (in words) [5, 15]: synergized; 8 day new growth rating (1 = healthy new growth, 5 = no new growth) [6, 14]: 1.0; Synergism of Cobra activity by addition of salicylate (in words) [6, 15]: not; 8 day new growth rating (1 = healthy new growth, 5 = no new growth) [3, 14]: 1.2; 8 day new growth rating (1 = healthy new growth, 5 = no new growth) [3, 13]: 2.0; 8 day new growth rating (1 = healthy new growth, 5 = no new growth) [3, 16]: 4.2; Synergism of Cobra activity by addition of salicylate (in words) [3, 15]: not; Safening: effect of salicylate on herbicide-induced damage (in words) ([3]; summary of Table 1): decrease and delay herbicide-induced damage; 8 day new growth rating (1 = healthy new growth, 5 = no new growth) [7, 14]: 1.0; Synergism of Cobra activity by addition of salicylate (in words) [7, 15]: not; Effect of salicylate on Cobra herbicidal activity (in words) ([1]; added to Cobra, effect not statistically significant, summary of Table 4): increased; Effect of salicylate on flumioxazin herbicidal activity (in words) ([1]; added to flumioxazin, effect not statistically significant, summary of Table 4): increased; 8 day new growth rating (1 = healthy new growth, 5 = no new growth) [8, 14]: 1.0; Synergism of Cobra activity by addition of salicylate (in words) [8, 15]: not; 8 day new growth rating (1 = healthy new growth, 5 = no new growth) [2, 14]: 1.0; 8 day new growth rating (1 = healthy new growth, 5 = no new growth) [2, 13]: 1.2; 8 day new growth rating (1 = healthy new growth, 5 = no new growth) [2, 16]: 4.5; Synergism of Cobra activity by addition of salicylate (in words) [2, 15]: synergized; Effect of salicylate on flumioxazin activity (in words) ([2]; added to flumioxazin, summary of Table 4): increase flumioxazin activity; Effect of salicylate on lactofen activity (in words) ([2]; added to lactofen, summary of Table 2): increase lactofen activity; Effect of salicylate on herbicidal activity of Cobra (in words) ([4]; added to Cobra, summary of Table 3): increases the herbicidal activity; Effect of salicylate on herbicidal activity of lactofen (in words) ([4]; added to lactofen, summary of Table 3): increases the herbicidal activity; Effect of addition of salicylate on Phoenix (lactofen) herbicidal activity (in words) [9]: increased
